Source: ChEMBL document CHEMBL1133403 (Bioorg Med Chem Lett, 2000)

Key:
[1] = target: T1, Progesterone receptor (Homo sapiens, UniProt P06401); assay: Human progesterone receptor (hPR) agonist activity using cotransfection assay in CV-1 cells.; assay type: functional, cell-based
T1 sequence (P06401 whole entry): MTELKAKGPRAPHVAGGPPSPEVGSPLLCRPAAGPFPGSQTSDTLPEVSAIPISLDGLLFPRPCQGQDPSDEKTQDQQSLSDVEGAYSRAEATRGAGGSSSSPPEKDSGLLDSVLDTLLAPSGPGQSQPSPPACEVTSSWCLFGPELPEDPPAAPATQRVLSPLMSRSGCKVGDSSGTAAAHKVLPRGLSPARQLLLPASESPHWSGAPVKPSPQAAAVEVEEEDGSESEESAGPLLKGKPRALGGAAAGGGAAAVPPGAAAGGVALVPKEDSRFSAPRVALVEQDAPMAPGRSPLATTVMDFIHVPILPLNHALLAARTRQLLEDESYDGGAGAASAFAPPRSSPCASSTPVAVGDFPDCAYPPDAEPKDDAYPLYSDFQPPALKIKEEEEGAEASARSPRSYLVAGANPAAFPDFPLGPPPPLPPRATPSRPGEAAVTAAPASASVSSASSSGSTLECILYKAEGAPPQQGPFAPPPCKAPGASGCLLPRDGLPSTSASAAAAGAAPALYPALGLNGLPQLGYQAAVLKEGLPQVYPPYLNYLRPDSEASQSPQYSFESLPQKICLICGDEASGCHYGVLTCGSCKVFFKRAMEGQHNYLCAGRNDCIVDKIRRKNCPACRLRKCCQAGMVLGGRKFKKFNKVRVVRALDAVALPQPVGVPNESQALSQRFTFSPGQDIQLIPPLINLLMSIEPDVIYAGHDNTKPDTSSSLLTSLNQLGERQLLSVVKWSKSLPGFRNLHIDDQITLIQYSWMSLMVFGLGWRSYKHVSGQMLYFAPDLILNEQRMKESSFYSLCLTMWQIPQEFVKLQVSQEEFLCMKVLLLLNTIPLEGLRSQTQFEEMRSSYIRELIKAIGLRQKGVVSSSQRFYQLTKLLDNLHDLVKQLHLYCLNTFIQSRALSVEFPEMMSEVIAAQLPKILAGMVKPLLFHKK

[2] = target: T1, Progesterone receptor; assay: Antagonist activity against human progesterone receptor (hPR) using cotransfection assay in CV-1 cells; assay type: functional, cell-based
[3] = target: T1, Progesterone receptor; assay: Binding affinity against human progesterone receptor (hPR) in a competitive binding assay
[4] = target: T1, Progesterone receptor; assay: Antagonist activity against human progesterone receptor (hPR) in T47D human breast cancer cell line; assay type: functional, cell-based
[5] = target: T1, Progesterone receptor; assay: Human progesterone receptor (hPR) agonist activity in T47D human breast cancer cell line; NA=not active; assay type: functional, cell-based
[6] = target: T1, Progesterone receptor; assay: Human progesterone receptor (hPR) agonist activity in T47D human breast cancer cell line; assay type: functional, cell-based
[7] = target: T2, Mineralocorticoid receptor (Homo sapiens, UniProt P08235); assay: Cross-reactivity as binding to human mineralocorticoid receptor (hMR); assay type: functional
T2 sequence (P08235 whole entry): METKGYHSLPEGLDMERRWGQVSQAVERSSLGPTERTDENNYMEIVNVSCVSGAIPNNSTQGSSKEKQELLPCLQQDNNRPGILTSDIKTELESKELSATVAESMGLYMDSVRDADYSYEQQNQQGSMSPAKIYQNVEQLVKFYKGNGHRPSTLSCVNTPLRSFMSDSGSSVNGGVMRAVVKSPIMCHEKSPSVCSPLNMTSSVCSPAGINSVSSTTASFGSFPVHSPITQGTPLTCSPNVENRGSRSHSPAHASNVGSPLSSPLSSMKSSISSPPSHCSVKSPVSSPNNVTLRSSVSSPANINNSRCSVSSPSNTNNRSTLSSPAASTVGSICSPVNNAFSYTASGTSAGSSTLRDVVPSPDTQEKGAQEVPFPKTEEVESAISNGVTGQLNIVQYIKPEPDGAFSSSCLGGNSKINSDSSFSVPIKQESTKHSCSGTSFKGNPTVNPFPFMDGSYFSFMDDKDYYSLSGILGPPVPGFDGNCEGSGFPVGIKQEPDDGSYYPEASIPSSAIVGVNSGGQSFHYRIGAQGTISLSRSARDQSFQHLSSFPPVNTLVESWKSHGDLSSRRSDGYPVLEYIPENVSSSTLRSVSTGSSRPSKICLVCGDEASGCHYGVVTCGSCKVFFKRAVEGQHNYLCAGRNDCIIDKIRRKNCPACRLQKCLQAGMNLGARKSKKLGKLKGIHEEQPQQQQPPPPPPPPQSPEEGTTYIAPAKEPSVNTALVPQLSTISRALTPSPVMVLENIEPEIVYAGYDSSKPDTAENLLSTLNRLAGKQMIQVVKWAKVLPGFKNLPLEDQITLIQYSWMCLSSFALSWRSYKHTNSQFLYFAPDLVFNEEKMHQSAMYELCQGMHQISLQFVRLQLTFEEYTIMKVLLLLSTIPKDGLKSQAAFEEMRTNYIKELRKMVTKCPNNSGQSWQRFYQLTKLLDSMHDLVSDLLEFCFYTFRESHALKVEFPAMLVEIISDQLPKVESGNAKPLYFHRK

[8] = target: T3, Glucocorticoid receptor (Homo sapiens, UniProt P04150); assay: Cross-reactivity as binding to human glucocorticoid receptor (hGR); assay type: functional
T3 sequence (P04150 whole entry): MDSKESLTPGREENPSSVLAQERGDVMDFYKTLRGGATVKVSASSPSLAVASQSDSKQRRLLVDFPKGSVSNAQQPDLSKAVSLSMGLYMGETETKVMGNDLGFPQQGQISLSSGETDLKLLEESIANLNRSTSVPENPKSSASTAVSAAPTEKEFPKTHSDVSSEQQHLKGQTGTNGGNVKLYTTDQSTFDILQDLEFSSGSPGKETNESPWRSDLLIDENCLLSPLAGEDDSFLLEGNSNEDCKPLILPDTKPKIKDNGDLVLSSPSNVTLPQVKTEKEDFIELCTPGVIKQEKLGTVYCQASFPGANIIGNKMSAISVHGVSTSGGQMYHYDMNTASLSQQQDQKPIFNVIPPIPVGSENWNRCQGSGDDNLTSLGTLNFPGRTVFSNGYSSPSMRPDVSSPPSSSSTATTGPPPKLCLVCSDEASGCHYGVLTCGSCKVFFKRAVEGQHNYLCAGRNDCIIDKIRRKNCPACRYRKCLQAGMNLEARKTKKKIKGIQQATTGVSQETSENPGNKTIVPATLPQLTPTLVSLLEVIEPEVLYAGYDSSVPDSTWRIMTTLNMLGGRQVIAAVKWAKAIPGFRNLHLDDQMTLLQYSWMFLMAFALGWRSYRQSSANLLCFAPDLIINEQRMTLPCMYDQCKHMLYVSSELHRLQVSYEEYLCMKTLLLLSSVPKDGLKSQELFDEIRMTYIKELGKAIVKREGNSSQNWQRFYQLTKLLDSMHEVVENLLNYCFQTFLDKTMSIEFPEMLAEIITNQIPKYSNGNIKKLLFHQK

[9] = target: T4, Androgen receptor (Homo sapiens, UniProt P10275); assay: Cross-reactivity as binding to human androgen receptor (hAR); assay type: functional
T4 sequence (P10275 whole entry): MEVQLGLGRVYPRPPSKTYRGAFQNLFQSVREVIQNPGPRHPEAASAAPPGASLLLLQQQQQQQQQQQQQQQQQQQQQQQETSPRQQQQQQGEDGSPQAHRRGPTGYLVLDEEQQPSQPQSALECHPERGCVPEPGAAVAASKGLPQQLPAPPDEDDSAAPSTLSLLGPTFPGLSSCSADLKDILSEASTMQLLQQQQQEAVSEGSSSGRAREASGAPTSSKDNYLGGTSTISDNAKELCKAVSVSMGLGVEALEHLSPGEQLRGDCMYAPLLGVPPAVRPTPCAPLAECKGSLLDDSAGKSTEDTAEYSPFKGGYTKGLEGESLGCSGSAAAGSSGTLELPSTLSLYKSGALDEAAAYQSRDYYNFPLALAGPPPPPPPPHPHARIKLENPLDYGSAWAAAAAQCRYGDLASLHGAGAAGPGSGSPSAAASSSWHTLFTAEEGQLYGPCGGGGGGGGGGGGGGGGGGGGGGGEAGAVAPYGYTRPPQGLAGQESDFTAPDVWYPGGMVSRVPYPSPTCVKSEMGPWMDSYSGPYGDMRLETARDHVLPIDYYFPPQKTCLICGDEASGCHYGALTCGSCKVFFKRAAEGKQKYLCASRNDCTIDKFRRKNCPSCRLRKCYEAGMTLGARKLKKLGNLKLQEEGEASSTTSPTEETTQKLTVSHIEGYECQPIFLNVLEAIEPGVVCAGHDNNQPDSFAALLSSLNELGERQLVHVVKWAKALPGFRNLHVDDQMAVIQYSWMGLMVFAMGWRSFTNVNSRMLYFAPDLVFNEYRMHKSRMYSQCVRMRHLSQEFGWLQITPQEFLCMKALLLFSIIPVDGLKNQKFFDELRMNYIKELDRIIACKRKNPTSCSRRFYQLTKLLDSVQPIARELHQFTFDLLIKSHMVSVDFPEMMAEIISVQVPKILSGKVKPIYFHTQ

[10] = target: T1, Progesterone receptor; assay: Human progesterone receptor (hPR) agonist activity expressed in CV-1 cells; assay type: functional, cell-based

Row | EC50 [1] | IC50 [2] [nM] | Ki [3] [nM] | IC50 [4] [nM] | EC50 [5] | EC50 [6] [nM] | Structure (SMILES) | IC50 [7] [nM] | IC50 [8] [nM] | IC50 [9] [nM] | EC50 [10] [nM]
1 | Not Active | 318 | > 100 | 278 | Not Active |  | CC1=CC(C)(C)Nc2ccc(-c3ccsc3C#N)cc21 |  |  |  | 
2 | Not Active | 43 | 12 | 151 |  | 2650 | CC1=CC(C)(C)Nc2ccc(-c3ccc(Cl)s3)cc21 |  |  |  | 
3 | Not Active | 109 | 31 | 120 |  | 1400 | CC1=CC(C)(C)Nc2ccc(-c3cc(C#N)sc3C)cc21 |  |  |  | 
4 | Not Active | 65 | 31 | 71 | Not Active |  | CC1=CC(C)(C)Nc2ccc(-c3ccc(Br)s3)cc21 |  |  |  | 
5 | Not Active | 124 | 36 | 150 |  | 580 | CC1=CC(C)(C)Nc2ccc(-c3c(C)sc(C#N)c3C)cc21 |  |  |  | 
6 | Not Active | 729 | 80 | 78 | Not Active |  | CC1=CC(C)(C)Nc2ccc(-c3ccc(C=O)s3)cc21 |  |  |  | 
7 | Not Active | 232 | 25 | 105 | Not Active |  | CC1=CC(C)(C)Nc2ccc(-c3sccc3C)cc21 |  |  |  | 
8 | Not Active |  |  |  | Not Active |  | CN(C)c1ccc([C@H]2C[C@]3(C)[C@@H](CC[C@]3(O)CCCO)[C@@H]3CCC4=CC(=O)CCC4=C32)cc1 [ONAPRISTONE] |  |  |  | 
9 | Not Active | 242 | 249 | 250 | Not Active |  | CC1=CC(C)(C)Nc2ccc(-c3cc(Br)c(C#N)s3)cc21 |  |  |  | 

Second part, the compound before the results:

Row | Structure (SMILES) | EC50 [1] | IC50 [2] [nM] | Ki [3] [nM] | IC50 [4] [nM] | EC50 [5] | EC50 [6] [nM] | IC50 [7] [nM] | IC50 [8] [nM] | IC50 [9] [nM] | EC50 [10] [nM]
10 | CC1=CC(C)(C)Nc2ccc(-c3cccs3)cc21 | Not Active | 416 | 237 | 700 | Not Active |  |  |  |  | 
11 | CC1=CC(C)(C)Nc2ccc(-c3cc(Br)cs3)cc21 |  | 105 | 32 | 190 |  | 3500 |  |  |  | 
12 | CC1=CC(C)(C)Nc2ccc(-c3sc(C#N)cc3C)cc21 | Not Active | 33 | 26 | 123 |  | 500 | 2000 | 780 | 200 | 
13 | CC1=CC(C)(C)Nc2ccc(-c3sc(C#N)cc3Br)cc21 | Not Active | 52 | 433 | 120 |  | 700 |  |  |  | 
14 | Cc1cc(C#N)sc1-c1ccc2c(c1)C(C)(C)C(=O)C(C)(C)N2 |  | 10 | 3.9 |  |  |  | 2100 | 35 | 150 | 350
15 | Cc1cc(C#N)sc1-c1ccc2c(c1)C(C)CC(C)(C)N2 (configuration not stated) |  |  |  |  |  |  | 1000 |  | 45 | 
16 | CC1=CC(C)(C)Nc2ccc(-c3csc(C=O)c3)cc21 | Not Active | 245 | 37 | 102 | Not Active |  |  |  |  | 
